The source of these data is article PMC9000318, “Identification and Validation of a New Peptide Targeting Pancreatic Beta Cells” (Molecules, 2022).

One data set relates to primary islet cells. The source says:
Mice insulinoma cell line MIN6 were obtained from the Academy of Sciences Cell Bank of Shanghai and routinely cultured in RPMI-1640 medium (Gibco, Shanghai, China), supplemented with 10% (v/v) fetal bovine serum (FBS) and 1% (v/v) penicillin-streptomycin. The murine pancreatic cancer cell line KPC and the hepatocellular carcinoma cell line (HCC-LM3) were kindly provided by Tingbo Liang’s Research Group (Zhejiang University, Hangzhou, China). KPC cells were maintained in RPMI-1640 medium (Gibco, Shanghai, China), supplemented with 20% FBS, 1% sodium pyruvate (100×), and 1% MEM Non-Essential Amino Acids (NEAA 100×). HCC-LM3 cells were maintained in Dulbecco’s modified Eagle’s medium (DMEM; Gibco, Shanghai, China) with 10% FBS and 1% (v/v) penicillin-streptomycin. The primary islets were isolated by collagenase digestion from ICR (Institute of Cancer Research) mice and separated by density gradient centrifugation as previously described. The islets were incubated at 37 °C in 2 mL RPMI-1640 medium at a density of 100–150 islets per well in 6-well plates and maintained at 37 °C with 5% CO2.
To investigate the effect of LNTPLKS on the viability of the islet cells, different concentrations of LNTPLKS (0, 0.5, 1, 10 μM) were separately co-incubated with islet cells in 96-well plates (triplicate wells for each concentration of peptide). Twenty-four hours later, MTT was added and incubated for 4 h. DMSO was added after centrifugation and the color development was read at an OD of 570 nm. Islet cells were incubated with different concentrations of peptides for 24 h at 37 °C. The supernatant was discarded, cells were rinsed twice with PBS, KRB buffer containing 3.3 mM glucose was added, and the cells were incubated for 30 min at 37 °C. The supernatant was discarded and cells were incubated with KRB buffer containing low glucose (3.3 mM) or high glucose (16.7 mM) for 1 h.

The test system of data set [1] is islet cells. Description: FACS binding to islet cells. In kind it is cell-based, ICR mouse. The conditions noted are these: flow cytometry, FITC-labeled peptide, 2 h incubation, islets digested to single cells. As for the experimental part:
(§1) Purified FITC-labeled candidate peptides were used for the peptide-based immunofluorescence assay to confirm the selective binding of the selected peptides to the used cells. FITC-labeled peptide-based immunofluorescence assay was performed, and FITC-labeled peptide (1 μM) was added to each well and then incubated for 2 h at room temperature. The wells were washed with PBS three times and directly mounted with vectashield mounting medium after DAPI staining. The cells were visualized under fluorescence microscope. In addition, to determine the binding location of the peptide, MIN6 cells were labeled with LNTPLKS-FITC and further observed under confocal microscope. For fluorescence activated cell sorting, purified islets and KPC cells were incubated in 6 well plates; 24 h later, FITC-labeled peptide was added with a final concentration of 1 μM. After 2 h of incubation, cells were washed with PBS three times and harvested for FACS to quantitatively analyze the binding affinity of the peptide to the different cell types (islets was digested to single cells before FACS analyzing).
A general note: Flow cytometry measures light scatter and fluorescence of single cells or particles in a stream.

For the next data set, the system named is KPC cells. Description: FACS binding to KPC cells. In kind it is cell-based, murine. The following applies: flow cytometry, FITC-labeled peptide, 2 h incubation. The protocol: as §1
Data set [2] deals with islets in pancreas cryosections. Description: Binding to in situ islets, mouse pancreas cryosections. Further details: species or system ICR mice. The conditions noted are these: 2 h incubation, anti-insulin counterstain, fluorescence microscope. As for the experimental part:
(§2) In order to evaluate whether the LNTPLKS-FITC peptide could directly bind islets within the pancreas, the pancreas of ICR mice was collected and frozen sections were prepared. The cryosections were incubated with anti-insulin solution and LNTPLKS-FITC 2 h after treatment with BSA, followed by observation under fluorescence microscope. To determine whether LNTPLKS could bind to human islet, staining of paraffin-embedded human tissue sections were performed. Briefly, slices were deparaffinized and subsequently permeabilized by heating in antigen-unmasking solutions. After blocking with 2% BSA, slices were incubated with anti-insulin antibody at 4 °C overnight. Cy3-conjugated goat anti-mouse IgG (1:300 dilutions) antibody was incubated for 50 min at 24 °C. Then, the slices were incubated with DAPI and LNTPLKS-FITC or control peptide for 1 h at room temperature. Tissue slides were analyzed using a fluorescence microscope. To further confirm the specificity of peptide to islet, we transplanted islets under renal capsule of the ICR mice. Kidney slices containing islets grafts were prepared and incubated with LNTPLKS-FITC peptide. After 2 h of incubation, the slices were observed under fluorescence microscope.

The test system of another data set is islets grafts. The data set is described as follows: Binding to islet grafts under the renal capsule, kidney slices. The following applies: islets transplanted under renal capsule of ICR mice, slices incubated 2 h. As for the experimental part: as §2
For another data set, the system named is MIN6 tumor. The following applies: mouse, in vivo, 5 mg/kg.
The subject of another data set is pancreatic islet. Description: In vivo targeting of pancreatic islets after tail vein injection. Further details: species or system mice. The following applies: pancreas sliced, data not shown. From the text:
The final goal of developing a beta cell-specific molecular probe is to provide a non-invasive, in vivo imaging method for measuring BCM during diabetes progression and tracking islet grafts after islet transplantation, so that necessary and timely intervention can be performed. Therefore, all presumed beta cell-specific probes screened in vitro have to be validated by in vivo studies. As the first step, we tested islet specificity using pancreatic slices and islet graft-containing slices. […] However, when it comes to in vivo studies, the results were obscure. We injected FITC-conjugated LNTPLKS peptide into the mice via tail vein and the pancreas was then sliced to detect the targeting of the peptide in the pancreatic islet. The fluorescence within pancreas was rather weak (data not shown). The unsatisfied result might be attributed to the degradation of the peptide in the body. Increasing peptide stability and its circulation time will facilitate cellular uptake. In the following study, the peptide LNTPLKS will be further processed by chemical modification (such as PEGylation) to protect the peptide from degradation in vivo without changing the targeting ability of the peptide, or by conjugating it with other imaging materials (iron oxide nanoparticle, radionuclide, etc.) to be monitored by MR, SPECT, or other imaging modalities with high sensitivity.

Data set [3] deals with MIN6 cells. Description: FITC-labeled peptide-based immunofluorescence assay (ICC) on MIN6 cells. Details: species or system mice. The following applies: FITC-labeled peptide 1 μM, 2 h, room temperature; fluorescence microscope; KPC cells as cell control. The protocol: as §1
The subject of another data set is human islets. Description: Binding to human islets, paraffin-embedded pancreatic tissue sections. The conditions noted are these: paraffin sections from a donor, co-stained with anti-insulin antibody, 1 h room temperature. As for the experimental part:
as §2

The test system of the next data set is LM3 tumor. The conditions noted are these: mouse, in vivo, 5 mg/kg.
In data set [4] the test system is MIN6 cells. Description: Confocal microscopy, localization of the peptide in MIN6 cells. In kind it is cell-based, mice. The conditions noted are these: DAPI counterstain. As for the experimental part:
as §1

In data set [5] the test system is islet cells. The data set is described as follows: FITC-labeled peptide-based immunofluorescence assay on purified islets. Format: cell-based, ICR mouse. The following applies: fluorescence microscope. The protocol: as §1

Ends that are not written are not given here. * marks the point of attachment. FITC = O=C1OC2(c3ccc(O)cc3Oc3cc(O)ccc32)c2ccc(NC(=S)*)cc21

Description for LM3 tumor: (§3) In total, 2 × 10^6 MIN6 cells and HCC-LM3 cells were subcutaneously inoculated in male nude mice for 4 weeks separately. After 16 days, the tumor grew to approximately 1.0 cm^3. […] The tumor, spleen, kidney and liver were harvested and their fluorescence intensity was quantified by in vivo imaging system (IVIS).
Description for MIN6 tumor: as §3

In the case of “LNTPLKS [seven-amino acid peptide targeting beta cell line MIN6, screened by phage display]”, the “viability of the islet cells” value in the data set on primary islet cells (MTT, 24 h co-incubation, peptide concentration between 500 and 1 μM, triplicate wells) is “only slightly affected”. Moreover, the “glucose-stimulated insulin secretion (GSIS)” value with primary islet cells (peptide 24 h at 37 °C, between 500 and 1 μM, KRB buffer high glucose 16.7 mM, 1 h, insulin ELISA, three tests) is given as “only slightly affected”. In addition, the “basical insulin secretion (BIS)” value in the data set on primary islet cells (peptide 24 h at 37 °C, between 500 and 1 μM, KRB buffer low glucose 3.3 mM, 1 h, insulin ELISA, three tests) is “only slightly affected”. Moreover, the “mean fluorescence peak point, islet group” value in the data set on islet cells [1] is “shifted to the right side”. In the data set with KPC cells, the “mean fluorescence peak point, KPC cell group” value is reported as “no such shift”.
In the case of “SPPTGIN-FITC [random peptide SPPTGIN conjugated with FITC at the N-terminus, negative control, reference compound]”, the “fluorescence of islets in mouse pancreas cryosections” value in data set [2] is “no fluorescent signal was merged with the anti-insulin signal”. Also, in the data set with islets grafts, the “fluorescence of islets grafts in kidney slices” value is “no fluorescence was observed”.
As for “{FITC}-LNTPLKS [LNTPLKS-FITC, LNTPLKS conjugated with fluorescein isothiocyanate (FITC) at the N-terminus]”, the “fluorescence of islets in mouse pancreas cryosections” value in [2] is listed as “fluorescent, whereas the surrounding exocrine tissues were not”. Further, in the data set with MIN6 tumor, the “fluorescence average counts, kidney” value is recorded as 1.14 × 10^3 counts; the “fluorescence average counts, liver” value is 1.81 × 10^3 counts; the “fluorescence average counts, spleen” value is listed as 4.84 × 10^2 counts; the “fluorescence average counts, tumor” value is 1.80 × 10^3 counts. In addition, the “fluorescence within pancreas after injection” value in the data set with pancreatic islet is “rather weak”. Also, the “FITC signal in MIN6 cells” value with MIN6 cells [3] was “significantly higher FITC signal”. For the same substance, in the data set with human islets, the “binding to human islets in pancreatic tissue sections” value is “identifiable within the islets and co-localized with insulin-producing cells”. For the same substance, in the data set on LM3 tumor, the “fluorescence average counts, kidney” value is recorded as 1.20 × 10^3 counts; the “fluorescence average counts, liver” value was 2.15 × 10^3 counts; the “fluorescence average counts, spleen” value is listed as 5.24 × 10^2 counts; the “fluorescence average counts, tumor” value is recorded as 9.47 × 10^2 counts. The “fluorescence of islets grafts in kidney slices” value in the data set on islets grafts is given as “fluorescent”. Besides, the “localization of the peptide on MIN6 cells” value in the data set on MIN6 cells [4] is “internalized to the cytoplasm”. For the same substance, the “affinity for the islet cells (fluorescent images)” value in the data set with islet cells [5] is on record as “high affinity”.
